Laboratory results: patent US6828462B2, “Unsaturated 1-amino-alkylcyclohexane NMDA, 5HT3, and neuronal nicotinic receptor antagonists” (Merz Pharma GmbH & Co. KGAA, priority 2001, dated 2004)
pIC50, pKi: −log10 of the molar value. Where two headings read alike, the source gives them in different places.

What was measured:
[1] = biological target: NMDA receptor ([3H]-(+)-MK-801 site) (Rattus norvegicus, UniProt P35439); assay: [3H]-(+)-MK-801 receptor binding, rat cortex membranes
NMDA receptors = biological target: T1, NMDA receptors (Rattus norvegicus, UniProt P35439); assay: Patch clamp, NMDA-induced currents in hippocampal neurones; assay type: cell-based
T1 construct: Patch clamp recordings were made from these neurones; endogenous in cells; host or cells: primary cultured hippocampal neurones from rat embryos (E20 to E21)

ataxia (rotarod) = assay: Accelerating rotarod test, ataxia (motor coordination); assay type: in vivo, mice; settings: for Therapeutic index (ataxia ED50 / MES ED50): ED50 ataxia divided by ED50 MES
Description: (§1) NMR female mice (18-28 g) housed 5 per cage were used for the maximal electroshock (MES) and motor impairment tests. All animals were kept with water and food ad libitum under a 12 hour light-dark cycle (light on at 6 a.m.) and at a controlled temperature (20±0.5C). All experiments were performed between 10 a.m. and 5 p.m. Tested agents were injected 30 min. i.p. before the induction of convulsions if not stated otherwise (see below). All compounds were dissolved in 0.9% saline.
(§2) The MES test was performed together with tests for myorelaxant action (traction reflex) and motor coordination (rotarod). For the traction reflex test mice were placed with their forepaws on a horizontal rod and were required to place all 4 paws on the wire within 10 seconds. To test ataxia (motor coordination) mice were placed on an accelerating rotarod and were required to remain on the rod for 1 minute. […] These tests were followed by MES (100 Hz, 0.5 second shock duration, 50 mA shock intensity, 0.9 ms impulse duration, Ugo Basile) applied through corneal electrodes. The presence of tonic convulsions was scored (tonic extension of hind paws with minimum angle to the body of 90). The aim was to obtain ED50s for all parameters scored (anticonvulsive activity and motor side effects) with use of the Litchfield Wilcoxon test for quantal dose responses. Division of the ED50 for side effects (ataxia or myorelaxation) by the ED50 for antagonism of electroshock convulsions was used as a therapeutic index (TI).
(§3) 4-7 doses of antagonists were tested in each of the in vivo tests (5-8 animals per dose) to allow calculation of graded ED50s according to probit analysis (Litchfield and Wilcoxon) with correction for 0% to 100% effects. ED50s are presented with 95% confidence limits (Cl). Pearson product moment correlation analysis (Sigma Stat, Jandel Scientific) was used to compare in vitro potencies and in vivo anticonvulsant activity.

[2] = as above; assay type: in vivo, mice; settings: mouse, in vivo, ip; NMR female mice, accelerating rotarod
Description: as §1, §2, §3

[3] = system: maximal electroshock (MES) tonic convulsions; assay: Maximal electroshock (MES) test, anticonvulsive activity; assay type: in vivo, mice; settings: for ED50: Mus musculus, ip, read-out: MES ED50
Description: as §1, §2, §3

[4] = system: myorelaxation (traction reflex); assay: Traction reflex test, myorelaxant action; assay type: in vivo, mice; settings: for Therapeutic index (myorelaxation ED50 / MES ED50): ED50 myorelaxation divided by ED50 MES
Description: as §1, §2, §3

[5] = Traction reflex test, myorelaxant action; assay type: in vivo, mice; settings: mouse, in vivo, ip; NMR female mice, i.p., traction reflex; read-out: Myorelaxation ED50
Description: as §1, §2, §3

[6] = Table 1, mean, N=6, read-out: NMDA IC50
[7] = NMR female mice, i.p. 30 min before convulsions
[8] = read-out: [^3H]MK-801 Ki, rat cortex membranes, [3H]-(+)-MK-801 5 nM, glycine 10 μM, glutamate 10 μM, mean

Compound	pKi [1]	ED50 at 30 min [5] [mg/kg]	pIC50 (NMDA receptors; [6])	pIC50 (NMDA receptors)	Therapeutic index (ataxia ED50 / MES ED50) (ataxia (rotarod))	ED50 at 30 min [2] [mg/kg]	ED50 [3] [mg/kg]	Therapeutic index (myorelaxation ED50 / MES ED50) [4]	ED50 [3, 7] [mg/kg]	pKi [1, 8]	Ataxia ED50 (ataxia (rotarod); NMR female mice, i.p., accelerating rotarod)	MES ED50 [3, 7]	Myorelaxation ED50 ([4]; NMR female mice, i.p., traction reflex)
C=CC1(NC)CC(C)(C)CC(C)(C)C1 [MRZ 2021, N-Methyl-1-ethenyl-3,3,5,5-tetramethylcyclohexylamine]	5.18	21.4		4.90	1.8	24.7	13.6	1.6					
CC1=CC(C)(C)CC(C)(C)C1N.Cl (stereo not shown) [MRZ 2/657, 1-amino-2,4,4,6,6-pentamethyl-cyclohex-2-en Hydrochloride]	4.87	> 30				> 30			> 30				
CC(C)(N)CC1=CC(C)(C)CC(C)(C)C1 [MRZ 2010, 2-Methyl-1-(3,3,5,5-tetramethyl-1-cyclohexen-1-yl)-2-propanamine]	4.35	> 50				> 50	> 50						
Neramexane Sulphate [MRZ 2000, reference compound]										5.77			
CC1=CC(N)CC(C)(C)C1 (stereo not shown) [MRZ 2/1023, 1-Amino-3,3,5-trimethyl-2-cyclohexene]										4.30	>50	>50	>50
C=CCC1(N2CCCCC2)CC(C)(C)CC(C)(C)C1 [MRZ 2013, 1-(1-Allyl-3,3,5,5-tetramethylcyclohexyl)piperidine]	4.31	> 50				> 50	> 50						
C#CCC1(N2CCCCC2)CC(C)(C)CC(C)(C)C1 [MRZ 2016, 1-[3,3,5,5-Tetramethyl-1-(2-propynyl)cyclohexyl]piperidine]	4.37	> 50	4.15			> 50	> 50						
CC1(C)C=C(N)CC(C)(C)C1 [MRZ 2/1005, 1-Amino-3,3,5,5-Tetramethyl-1-cyclohexene]	4.87	35.7			1.3	26.8		1.7	20.5				
CC(C)(N)C=C1CC(C)(C)CC(C)(C)C1 [MRZ 2019, 2-Methyl-1-(3,3,5,5-tetramethylcyclohexylidene)-2-propanamine]	4.14	> 50				> 50	> 50						
CC1=CC(C)(N)CC(C)(C)C1 (stereo not shown) [MRZ 2002, 1,3,5,5-Tetramethyl-2-cyclohexen-1-amine]	5.24	34			2.0	53	26.1	1.3					
CC(N)C1=CC(C)(C)CC(C)(C)C1 (stereo not shown) [MRZ 2/749, 1-(1-Aminoethyl)-3,3,5,5-tetramethylcyclohex-1-ene]	4.97	38.6			1.4	37.1		1.5	26.6				
CCC1(CC)CC(=CC(C)N)CC(C)(C)C1 (stereo not shown) [MRZ 2008, 1-(3,3-Diethyl-5,5-dimethylcyclohexylidene)-2-propanamine]	5.09		5.56										
CC(C)=CCC1(N2CCCCC2)CC(C)(C)CC(C)(C)C1 [MRZ 2015, 1-[3,3,5,5-Tetramethyl-1-(3-methyl-2-butenyl)cyclohexyl]piperidine]	4.08	> 50				> 50	> 50						

More lines, main results first:

pKi [1]	ED50 at 30 min [5] [mg/kg]	pIC50 (NMDA receptors; [6])	Compound	pIC50 (NMDA receptors)	Therapeutic index (ataxia ED50 / MES ED50) (ataxia (rotarod))	ED50 at 30 min [2] [mg/kg]	ED50 [3] [mg/kg]	Therapeutic index (myorelaxation ED50 / MES ED50) [4]	ED50 [3, 7] [mg/kg]	pKi [1, 8]	Ataxia ED50 (ataxia (rotarod); NMR female mice, i.p., accelerating rotarod)	MES ED50 [3, 7]	Myorelaxation ED50 ([4]; NMR female mice, i.p., traction reflex)
4.70	29.4	4.43	CC1(C)CC(=CCCN)CC(C)(C)C1 [MRZ 2018, 3-(3,3,5,5-Tetramethylcyclohexylidene)propanamine]		0.3	26.7		0.4	78.5				
	26.7	4.53	C=CCNC1(C)CC(C)(C)CC(C)(C)C1 [MRZ 2026, N-Allyl-1,3,3,5,5-pentamethylcyclohexanamine]		1.5	37.6		1.1	25.4				
5.03	39.8	4.90	C=CCC1(N)CC(C)(C)CC(C)(C)C1 [MRZ 2005, 1-Allyl-3,3,5,5-tetramethylcyclohexanamine]		1.3	49.3		1.1	37.3				
5.13	34.5		CC(CN)=C1CC(C)(C)CC(C)(C)C1 [MRZ 2020, 2-(3,3,5,5-Tetramethylcyclohexylidene)propanamine]		1.1	27.6		1.3	26.1				
5.51	13.9	7.00	C=CC1(CCN)CC(C)(C)CC(C)(C)C1 [MRZ 2014, 2-(1-Vinyl-3,3,5,5-tetramethylcyclohexyl-1)ethylamine]		0.5	25.8		0.3	47.8				
5.17	35.6	5.92	C=CCC(CN)C1(C)CC(C)(C)CC(C)(C)C1 (stereo not shown) [MRZ 2017, 2-(1,3,3,5,5-Pentamethylcyclohexyl)-4-pentenylamine]		0.9	33.7		1.0	36.9				
4.65	> 50	4.24	C=C[C@@]1(C)C[C@H](C)C[C@@](C)(N)C1 (relative stereo) [MRZ 2009, cis-3-Vinyl-1,3,trans-5-trimethylcyclohexylamine]			> 50			> 50				
5.00	44.6		CC(N)C=C1CC(C)(C)CC(C)(C)C1 (stereo not shown) [MRZ 2006, 1-(3,3,5,5-Tetramethylcyclohexylidene)-2-propanamine]		0.7	40.9		0.8	57				
5.67	16.5	6.48	CC1(C)CC(=CCN)CC(C)(C)C1 [MRZ 2/1021, 2-(3,3,5,5-Tetramethylcyclohexylidene)ethanamine]		0.8	23.1		0.6	29.5				
